Assay results as given in ChEMBL document CHEMBL5528067, “From Synergy to Monotherapy: Discovery of Novel 2,4,6-Trisubstituted Triazine Hydrazone Derivatives with Potent Antifungal Potency In Vitro and In Vivo” (J Med Chem, 2024).
In brackets after ≈: the same amount, converted by molar mass.

Tests used:
Format in all cases: functional
Candida albicans [1] = assay: Synergistic antifungal activity against FCZ-resistant Candida albicans strain 901 assessed as fractional inhibitory concentration index measured after 48 hrs in presence of FCZ by CLSI based micro-dilution broth method
Candida albicans [2] = assay: Antifungal activity against FCZ-resistant Candida albicans strain 901 assessed as growth inhibition in presence of fluconazole measured after 48 hrs incubation by CLSI based micro-dilution broth method
Candida albicans [3] = assay: Synergistic antifungal activity against FCZ-resistant Candida albicans strain 904 assessed as fractional inhibitory concentration index measured after 48 hrs in presence of FCZ by CLSI based micro-dilution broth method
Candida albicans [4] = assay: Antifungal activity against FCZ-resistant Candida albicans strain 901 assessed as growth inhibition measured after 48 hrs incubation by CLSI based micro-dilution broth method
Candida albicans [5] = assay: Antifungal activity against FCZ-resistant Candida albicans strain 904 assessed as growth inhibition in presence of fluconazole measured after 48 hrs incubation by CLSI based micro-dilution broth method
Candida albicans [6] = assay: Antifungal activity against FCZ-resistant Candida albicans strain 904 assessed as growth inhibition measured after 48 hrs incubation by CLSI based micro-dilution broth method
Pichia kudriavzevii = assay: Antifungal activity against Candida krusei 4996 assessed as growth inhibition measured after 48 hrs incubation by CLSI based micro-dilution broth method
Nakaseomyces glabratus = assay: Antifungal activity against Candida glabrata 537 assessed as growth inhibition measured after 48 hrs incubation by CLSI based micro-dilution broth method
[Candida] auris [7] = Antifungal activity against FCZ-resistant Candida auris 918 assessed as growth inhibition measured after 48 hrs incubation by CLSI based micro-dilution broth method; settings: Candidozyma auris
Candida albicans [8] = assay: Antifungal activity against FCZ-resistant Candida albicans 10231 assessed as growth inhibition measured after 48 hrs incubation by CLSI based micro-dilution broth method
Candida tropicalis = assay: Antifungal activity against Candida tropicalis 8915 assessed as growth inhibition measured after 48 hrs incubation by CLSI based micro-dilution broth method
Candida albicans [9] = assay: Antifungal activity against FCZ-resistant Candida albicans SC5314 assessed as growth inhibition measured after 48 hrs incubation by CLSI based micro-dilution broth method
[Candida] auris [10] = Antifungal activity against FCZ-resistant Candida auris 919 assessed as growth inhibition measured after 48 hrs incubation by CLSI based micro-dilution broth method; settings: Candidozyma auris
Cryptococcus neoformans = assay: Antifungal activity against Cryptococcus neoformans 32609 assessed as growth inhibition measured after 48 hrs incubation by CLSI based micro-dilution broth method
Candida parapsilosis = assay: Antifungal activity against Candida parapsilosis 22019 assessed as growth inhibition measured after 48 hrs incubation by CLSI based micro-dilution broth method; settings: Lodderomyces parapsilosis

| SMILES | fractional inhibitory concentration index (FICI) (Candida albicans [1]) | MIC80 (Candida albicans [2]) [µg/mL] | fractional inhibitory concentration index (FICI) (Candida albicans [3]) | MIC80 (Candida albicans [4]) [µg/mL] | MIC80 (Candida albicans [5]) [µg/mL] | MIC80 (Candida albicans [6]) [µg/mL] | MIC80 (Pichia kudriavzevii) [µg/mL] | MIC80 (Nakaseomyces glabratus) [µg/mL] | MIC80 ([Candida] auris [7]) [µg/mL] | MIC80 (Candida albicans [8]) [µg/mL] | MIC80 (Candida tropicalis) [µg/mL] | MIC80 (Candida albicans [9]) [µg/mL] | MIC80 ([Candida] auris [10]) [µg/mL] | MIC80 (Cryptococcus neoformans) [µg/mL] | MIC80 (Candida parapsilosis) [µg/mL] |
| --- | --- | --- | --- | --- | --- | --- | --- | --- | --- | --- | --- | --- | --- | --- | --- |
| Fc1ccc(CNc2nc(NCc3ccc(F)cc3)nc(N/N=C/c3ccc(I)cc3)n2)cc1 | 1.13 | > 64 | 1.13 | > 64 | > 64 | > 64 | – | – | – | – | – | – | – | – | – |
| O=[N+]([O-])c1ccc(O)c(/C=N/Nc2nc(NCc3ccc(F)cc3)nc(Nc3ccc(F)cc3)n2)c1 | – | – | – | – | – | – | 1 (≈ 2.03 µM) | 0.5 (≈ 1.02 µM) | 8 (≈ 16.2 µM) | 8 (≈ 16.2 µM) | 2 (≈ 4.06 µM) | 2 (≈ 4.06 µM) | 32 (≈ 65 µM) | 2 (≈ 4.06 µM) | 8 (≈ 16.2 µM) |
| Fc1ccc(CNc2nc(NCc3ccc(F)cc3)nc(N/N=C/c3ccc(Cl)cc3)n2)cc1 | 1.13 | > 64 | 1.13 | > 64 | > 64 | > 64 | – | – | – | – | – | – | – | – | – |
| O=[N+]([O-])c1c(O)cccc1/C=N/Nc1nc(NCc2ccc(F)cc2)nc(NCc2ccc(F)cc2)n1 | 1.13 | > 64 | 1.13 | > 64 | > 64 | > 64 | – | – | – | – | – | – | – | – | – |
| Fc1ccc(CNc2nc(NCc3ccc(F)cc3)nc(N/N=C/c3ccc(Br)cc3)n2)cc1 | 1.13 | > 64 | 1.13 | > 64 | > 64 | > 64 | – | – | – | – | – | – | – | – | – |
| Fc1ccc(CNc2nc(NCc3ccc(F)cc3)nc(N/N=C/c3ccccc3Cl)n2)cc1 | 1.13 | > 64 | 1.13 | > 64 | > 64 | > 64 | – | – | – | – | – | – | – | – | – |
| COc1ccc(Nc2nc(N/N=C/c3cc([N+](=O)[O-])ccc3O)nc(Nc3ccc(OC)cc3)n2)cc1 | – | – | – | – | – | – | 1 (≈ 1.99 µM) | 2 (≈ 3.98 µM) | > 64 | 16 (≈ 31.8 µM) | 4 (≈ 7.96 µM) | 2 (≈ 3.98 µM) | > 64 | 2 (≈ 3.98 µM) | > 64 |
| Fc1ccc(CNc2nc(NCc3ccc(F)cc3)nc(N/N=C/c3ccccc3F)n2)cc1 | 1.13 | > 64 | 1.13 | > 64 | > 64 | > 64 | – | – | – | – | – | – | – | – | – |
| O=[N+]([O-])c1ccc(/C=N/Nc2nc(NCc3ccc(F)cc3)nc(NCc3ccc(F)cc3)n2)cc1 | 1.13 | > 64 | 1.13 | > 64 | > 64 | > 64 | – | – | – | – | – | – | – | – | – |
| Fc1ccc(CNc2nc(NCc3ccc(F)cc3)nc(N/N=C/c3ccccc3)n2)cc1 | 1.13 | > 64 | 1.13 | > 64 | > 64 | > 64 | – | – | – | – | – | – | – | – | – |
| Cc1cccc(/C=N/Nc2nc(NCc3ccc(F)cc3)nc(NCc3ccc(F)cc3)n2)c1 | 1.13 | > 64 | 1.13 | > 64 | > 64 | > 64 | – | – | – | – | – | – | – | – | – |
| Oc1ccc(/C=N/Nc2nc(NCc3ccc(F)cc3)nc(NCc3ccc(F)cc3)n2)cc1 | 0.38 | 16 | 0.38 | > 64 | 16 | > 64 | – | – | – | – | – | – | – | – | – |
| O=[N+]([O-])c1cc(O)ccc1/C=N/Nc1nc(NCc2ccc(F)cc2)nc(NCc2ccc(F)cc2)n1 | 0.16 | 2 | 0.16 | > 64 | 2 | > 64 | – | – | – | – | – | – | – | – | – |
| O=[N+]([O-])c1ccc(O)cc1/C=N/Nc1nc(NCc2ccc(F)cc2)nc(NCc2ccc(F)cc2)n1 | 0.25 | 8 | 0.25 | > 64 | 8 | > 64 | – | – | – | – | – | – | – | – | – |
| COc1ccc(/C=N/Nc2nc(NCc3ccc(F)cc3)nc(NCc3ccc(F)cc3)n2)cc1 | 1.13 | > 64 | 1.13 | > 64 | > 64 | > 64 | – | – | – | – | – | – | – | – | – |
| Oc1cccc(/C=N/Nc2nc(NCc3ccc(F)cc3)nc(NCc3ccc(F)cc3)n2)c1 | 0.25 | 8 | 0.25 | > 64 | 8 | > 64 | – | – | – | – | – | – | – | – | – |
| COc1ccc(Nc2nc(NCc3ccc(F)cc3)nc(N/N=C/c3cc([N+](=O)[O-])ccc3O)n2)cc1 | – | – | – | – | – | – | 1 (≈ 1.98 µM) | 0.5 (≈ 0.991 µM) | 32 (≈ 63.4 µM) | 16 (≈ 31.7 µM) | 2 (≈ 3.96 µM) | 2 (≈ 3.96 µM) | 32 (≈ 63.4 µM) | 2 (≈ 3.96 µM) | 8 (≈ 15.9 µM) |
| O=[N+]([O-])c1cccc(/C=N/Nc2nc(NCc3ccc(F)cc3)nc(NCc3ccc(F)cc3)n2)c1 | 1.13 | > 64 | 1.13 | > 64 | > 64 | > 64 | – | – | – | – | – | – | – | – | – |
| Fc1ccc(CNc2nc(NCc3ccc(F)cc3)nc(N/N=C/c3ccc(C(F)(F)F)cc3)n2)cc1 | 1.13 | > 64 | 1.13 | > 64 | > 64 | > 64 | – | – | – | – | – | – | – | – | – |
| Cc1ccc(/C=N/Nc2nc(NCc3ccc(F)cc3)nc(NCc3ccc(F)cc3)n2)cc1 | 1.13 | > 64 | 1.13 | > 64 | > 64 | > 64 | – | – | – | – | – | – | – | – | – |
| O=[N+]([O-])c1ccc(/C=N/Nc2nc(NCc3ccc(F)cc3)nc(NCc3ccc(F)cc3)n2)cc1O | 0.19 | 4 | 0.19 | > 64 | 4 | > 64 | – | – | – | – | – | – | – | – | – |
| N#Cc1ccc(/C=N/Nc2nc(NCc3ccc(F)cc3)nc(NCc3ccc(F)cc3)n2)cc1 | 1.13 | > 64 | 1.13 | > 64 | > 64 | > 64 | – | – | – | – | – | – | – | – | – |
| Fc1ccc(CNc2nc(NCc3ccc(F)cc3)nc(N/N=C/c3ccc(OC(F)(F)F)cc3)n2)cc1 | 1.13 | > 64 | 1.13 | > 64 | > 64 | > 64 | – | – | – | – | – | – | – | – | – |
| Fc1ccc(CNc2nc(NCc3ccc(F)cc3)nc(N/N=C/c3cccc(F)c3)n2)cc1 | 1.13 | > 64 | 1.13 | > 64 | > 64 | > 64 | – | – | – | – | – | – | – | – | – |
| Fc1ccc(/C=N/Nc2nc(NCc3ccc(F)cc3)nc(NCc3ccc(F)cc3)n2)cc1 | 1.13 | > 64 | 1.13 | > 64 | > 64 | > 64 | – | – | – | – | – | – | – | – | – |
| Fc1ccc(CNc2nc(NCc3ccc(F)cc3)nc(N/N=C/c3cccc(Cl)c3)n2)cc1 | 1.13 | > 64 | 1.13 | > 64 | > 64 | > 64 | – | – | – | – | – | – | – | – | – |
| O=[N+]([O-])c1cc(/C=N/Nc2nc(NCc3ccc(F)cc3)nc(NCc3ccc(F)cc3)n2)ccc1O | 0.25 | 8 | 0.19 | > 64 | 4 | > 64 | – | – | – | – | – | – | – | – | – |
| Cc1ccccc1/C=N/Nc1nc(NCc2ccc(F)cc2)nc(NCc2ccc(F)cc2)n1 | 1.13 | > 64 | 1.13 | > 64 | > 64 | > 64 | – | – | – | – | – | – | – | – | – |
| O=[N+]([O-])c1ccccc1/C=N/Nc1nc(NCc2ccc(F)cc2)nc(NCc2ccc(F)cc2)n1 | 1.13 | > 64 | 1.13 | > 64 | > 64 | > 64 | – | – | – | – | – | – | – | – | – |
| O=[N+]([O-])c1cc(O)cc(/C=N/Nc2nc(NCc3ccc(F)cc3)nc(NCc3ccc(F)cc3)n2)c1 | 0.25 | 8 | 0.19 | > 64 | 4 | > 64 | – | – | – | – | – | – | – | – | – |
